Reference: publication PMC13369845 (Oncogenesis, 2026)
Where no end group is shown, it is not given here.

How the values were obtained:
[1] = In vitro plasma stability; assay type: in vitro ADME, mouse (C57BL/6); settings: LC-MS/MS
Method: Each aliquot (50 µl) was mixed with 150 µl methanol, vortexed, spun, removed the supernatant and reconstituted the pellet with 150 µl 10% formic acid in water. The sample was vortexed and spun, and a 100 µl aliquot was taken, diluted 1:1 with 10 mM ammonium bicarbonate, and analyzed by LC-MS/MS. Using the remaining vs. time dataset, we performed a first-order decay analysis by fitting a linear regression to the natural log-transformed percent remaining values (excluding 0% and t = 0 anchor point) to plot the graph.

[2] = In vivo plasma pharmacokinetics; design: species or system mouse (C57BL/6); settings: male C57BL/6 mouse, 5 mg/kg intraperitoneal, LC-MS/MS
Method: Blood samples (100 µl) were obtained at 0, 0.25, 0.5, 1, 2, 4, 8, and 24 h via tail vein bleeds.

[3] = test system: B16F10-derived tumors in C57BL/6 mice; assay: B16F10 melanoma mouse tumor model; assay type: in vivo; settings: CST 10 mg/kg intraperitoneally, three times per week
Method: Age-matched male and female C57BL/6 mice (7–9 weeks, n = 9) were subcutaneously injected with 5 × 10⁴ B16-F10 cells in 100 µL PBS. […] Tumor dimensions were measured with calipers, and volume was calculated using the formula V = (length × width²)/2. Mice were euthanized 22 days post-inoculation by inhalational isoflurane, that follow the institutional IACUC protocol and AVMA guideline for Euthanasia of animals (2020). […] Animals were continuously monitored till the loss of righting reflex and response to toe pinch was absent, thus confirming a surgical plane of anesthesia. Tissues were collected when the animals went into deep anesthesia and euthanasia was finally completely by exsanguination. […]
Fixed tumors were paraffin-embedded and sectioned (5 µm). […] The area fraction was calculated as the percentage of pixels that exceeded the threshold within the defined region of interest (ROI). Quantification was performed using Fiji (ImageJ), which computes the area fraction as the ratio of the threshold-positive area to the total ROI area, expressed as a percentage.
Apoptotic nuclei were detected in tumor sections using the CF®594 TUNEL Assay Kit (Biotium #30064). […] Fluorescence images were obtained using a Keyence microscope.
For tissue lysates from wild-type and CST-knockout (CST-KO) mice, 10 µg of total protein was analyzed by immunoblotting using an anti-CST antibody. […]

[4] = test system: Vemurafenib-resistant A375 cells; assay: Cell viability (CCK-8) of Vemurafenib-resistant A375 cells; assay type: cell-based, human
Method: Viability was determined using the CCK-8 reagent (APExBIO-K1018). Absorbance was measured at 450 nm using a Varioskan LUX reader.
Vemurafenib-resistant A375 cells were generated following established protocol. Parental cells were treated with 100 nM Vemurafenib (SelleckChem #S1267) for 2 weeks, followed by stepwise doubling of drug concentration every 2 weeks up to 3.2 µM. Surviving cells in maintenance culture containing 2 µM drug were used for downstream studies.

Molecule | intact material remaining ([1]; in vitro mouse plasma, 5 µg CST/ml, at ~5.6 h) | apparent first-order rate constant k ([1]; in vitro, C57BL/6 mouse plasma spiked with 5 µg CST/ml, aliquots over 24 h, linear regression of ln(% remaining) vs time, R^2 = 0.971) | Cmax ([2]; ip, plasma from tail vein bleeds 0-24 h, read-out: Cmax (maximum concentration)) | Tmax (time to reach Cmax) ([2]; plasma) | t1/2 (half-life) in vivo ([2]; plasma) | body weight and liver histology [3] | cell viability of A375 resistant cells, single agents and combination ([4]; Vemurafenib 2 µM, CST 2 µM, alone or combined, after 48 h) | IC50 of resistant cells relative to parental cells ([4]; Vemurafenib-resistant vs parental A375)
SSMKLSFRARAYGFRGPGPQL [CST, Catestatin] | ~ 50% | 0.1246 h⁻¹ | 160 ng/mL | 15 min | 89.4 min | No major changes in body weight or liver histology | – | –
CCCS(=O)(=O)Nc1ccc(F)c(C(=O)c2c[nH]c3ncc(-c4ccc(Cl)cc4)cc23)c1F [Vemurafenib] | – | – | – | – | – | – | little effect on cell viability | > 6 fold
